Laboratory results: patent US20140107226A1, “METHODS FOR ENHANCING STABILITY OF POLYORTHOESTERS AND THEIR FORMULATIONS” (A.P. PHARMA, INC., priority 2008, published 2014)

Assay: Granisetron in human plasma after APF530 (clinical pharmacokinetics)
Assay type: in vivo
Settings: chemo-patients, human trials (FIGS. 3 and 4)

Structure (SMILES): CN1C2CCCC1CC(NC(=O)c1nn(C)c3ccccc13)C2 (stereo not shown) [granisetron]
- clearance of granisetron: impaired clearance
